In data set [1] the test system is breast cancer xenograft models. As to conditions: regardless of ESR1 mutation status and prior endocrine therapy; cited from earlier work.
The target of another data set is T1, ERα (Homo sapiens, UniProt P03372).
T1 sequence (P03372 1-595): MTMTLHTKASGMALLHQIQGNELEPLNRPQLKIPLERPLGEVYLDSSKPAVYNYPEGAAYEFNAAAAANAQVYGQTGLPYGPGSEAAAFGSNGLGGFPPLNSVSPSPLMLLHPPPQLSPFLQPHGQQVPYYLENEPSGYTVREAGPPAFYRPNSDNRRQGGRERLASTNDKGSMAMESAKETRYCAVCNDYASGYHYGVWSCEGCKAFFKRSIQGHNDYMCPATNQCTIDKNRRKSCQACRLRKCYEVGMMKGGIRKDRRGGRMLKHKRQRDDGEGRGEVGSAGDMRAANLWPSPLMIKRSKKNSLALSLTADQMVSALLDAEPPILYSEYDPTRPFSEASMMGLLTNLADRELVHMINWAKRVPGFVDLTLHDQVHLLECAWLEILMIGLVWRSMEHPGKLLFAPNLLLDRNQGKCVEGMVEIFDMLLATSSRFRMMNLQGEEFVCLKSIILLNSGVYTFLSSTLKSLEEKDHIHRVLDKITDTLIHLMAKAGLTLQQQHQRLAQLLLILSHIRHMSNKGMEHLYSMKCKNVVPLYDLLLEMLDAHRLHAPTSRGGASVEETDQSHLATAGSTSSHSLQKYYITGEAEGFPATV
The settings on record: ERα versus estrogen receptor beta (ERβ); cited from earlier work.

Data set [2] deals with OV-10-0050 ovarian cancer tumor. In words: In vivo xenograft PDX model (OV-10-0050 ovarian patient derived xenograft). As for the experimental part:
RAD1901 used in the examples below was (6R)-6-(2-(N-(4-(2-(ethylamino)ethyl)benzyl)-N-ethylamino)-4-methoxyphenyl)-5,6,7,8-tetrahydronaphthalen-2-ol dihydrochloride, manufactured by IRIX Pharmaceuticals, Inc. (Florence, S.C.). RAD1901 was stored as a dry powder, formulated for use as a homogenous suspension in 0.5% (w/v) methylcellulose in deionized water, and for animal models was administered p.o.
All mice were housed in pathogen-free housing in individually ventilated cages with sterilized and dust-free bedding cobs, access to sterilized food and water ad libitum, under a light dark cycle (12-14 hour circadian cycle of artificial light) and controlled room temperature and humidity.
The PDX shown in FIG. 1 was the OV-10-0050 ovarian cancer tumor, derived from an ovarian adenocarcinoma from a person. The tumor was grade 3 and positive for cytokeratin indicating an ovarian epithelial type. The tumor also stained positive for ER and an ER target gene (progesterone receptor). The OV-10-0050 PDX model was established from viable human tumor tissue that had been serially passaged in animals (female Balb/c nude mice) a limited number of times to maintain tumor heterogeneity. […]
Tumor sizes were measured twice per week in two dimensions using a caliper, and the volume was expressed in mm^3 using the formula: V=0.5 a×b^2 where a and b were the long and short diameters of the tumor, respectively. […]
TGI was calculated for each group using the formula: TGI (%)=[1−(Ti−T0)/(Vi−V0)]×100; Ti is the average tumor volume of a treatment group on a given day, T0 is the average tumor volume of the treatment group on the day of grouping, Vi is the average tumor volume of the vehicle control group on a given day with Ti, and V0 is the average tumor volume of the vehicle group on the day of grouping. […]
A one-way ANOVA was performed to compare tumor volume among RAD1901-treted groups compared to the vehicle-treated group on day 32 of treatment. All data were analyzed using Graphpad Prism. p<0.05 was considered to be statistically significant.

Each structure is given as a SMILES string. “Also recorded” adds a separate entry of the source. Structures can show the parent of a compound that is named as a salt.

In the case of `CCNCCc1ccc(CN(CC)c2cc(OC)ccc2[C@@H]2CCc3cc(O)ccc3C2)cc1` [RAD1901, (6R)-6-(2-(N-(4-(2-(ethylamino)ethyl)benzyl)-N-ethylamino)-4-methoxyphenyl)-5,6,7,8-tetrahydronaphthalen-2-ol dihydrochloride], in data set [1], the “tumor growth inhibition and/or regression” value is listed as “inhibit tumor growth and/or drive tumor regression”. Also, the “binding preference ERα versus ERβ” value at ERα is recorded as “preferentially bind ERα”. In data set [2] (60 mg/kg p.o. q.d., Day 32, tumor-bearing Balb/c nude mice), the “tolerability (reason the group was taken down)” value was “weakness and heavy body weight loss”. Also, the tumor regression entry in data set [2] (OV-10-0050 PDX, 30 mg/kg and 60 mg/kg p.o. daily, individual tumor sizes on Day 32, FIG. 2, dihydrochloride) is listed as “drive tumor regression; also recorded: tumor regressions in some animals”. The “tumor growth inhibition (TGI)” value in data set [2] (OV-10-0050 PDX, RAD1901 30 or 60 mg/kg p.o. q.d., day 32, approximately equal activity at both dose groups, FIG. 1) is given as “about 80%”.

Values taken from patent US20200009085A1, “Methods For Treating Ovarian Cancer” (RADIUS HEALTH, INC., priority 2016, published 2020).
